Data reported in patent US4732892A, “L-α-amino acids as transdermal penetration enhancers” (priority 1985, dated 1988).
Like-named read-outs stand apart in the source and are kept apart here. Blank lines part the entries; values can stand above or below the molecule they belong to.

Legend:
[1] = in vitro penetration of levonorgestrel across hairless mouse skin, modified Franz diffusion cell
Source text: In the examples, the steady state rate of penetration, or flux, is indicated by the symbol: Jss. The cumulative amount of drug penetrated is indicated by the Symbol: Q. The lag period to reach steady state is indicated by the symbol: tL. The standard deviation for statistical purposes is abbreviated: S.D. The standard error of the mean for statistical purposes is abbreviated S.E.M. Abbreviation "g" denotes grams, "mg" denotes milligram, "mcg" denotes micrograms and "ng" denotes nanograms.
Initially, twelve amino acids were selected for evaluation of their effect on the rate of penetration of levonorgestrel through hairless mouse skin. Differing amino acids were selected according to the structure of their side chain so that at least one amino acid from each of the seven different chemical groups was studied. […] These were incorporated into transdermal drug formulations and the corresponding rates of penetration were determined. […] A total of 36 out of a possible 48 formulations were evaluated. The effect of amino acid, pH and ionic species on the rate of penetration was then analyzed.
The amino acids were dissolved in distilled water and the pH was adjusted by addition of either 0.1 or 1.ON HCl or 1.0N NaOH. Ethanol was then added to give a final ethanol concentration of 40% w/w. The pH was monitored and recorded. […] 1%(w/w) levonorgestrel was suspended in this solvent system. Suspensions were applied to hairless mouse skin as described above.
The penetration of drug across hairless mouse skin was studied in vitro using a modified Franz diffusion cell apparatus as described by Y. W. Chien, P. R. Keshary, Y. C. Huany and P. P. Sarpotdar in "Comparative Controlled Skin Permeation of Nitroglycerin from Marketed Transdermal Delivery Systems," J. Pharmaceutical Sciences, Vol. 72, No. 8 August 1983, pp. 968-970. […] Samples were withdrawn at predetermined times up to a total of 10 hours.
Subsequently, rates of penetration were also determined (in hairless mouse skin a described above) for Norleucine, Norvaline and α-Amino-n-Butyric Acid.

[2] = pH values at which amino acids were tested; cited from earlier work
[3] = Table II, average of all data at all pH values, amino acid 0.2 M

Structure (SMILES): N=C(N)NCCC[C@H](N)C(=O)O [Arginine, L-(+)-Arginine]
- Jss, steady state rate of penetration of levonorgestrel [1, 3]: 0.8864 mcg/cm^2 /hr
- Jss, steady state rate of penetration of levonorgestrel ([1]; Table VI, at pK2', pH 10.8): 1.012 mcg/cm^2 hr
- Jss, steady state rate of penetration of levonorgestrel ([1]; pH 2.9): 0.688 mcg/cm^2 /hr
- Jss, steady state rate of penetration of levonorgestrel ([1]; pH 4.2): 0.9590 mcg/cm^2 /hr
- Jss, steady state rate of penetration of levonorgestrel ([1]; pH 10.8): 1.012 mcg/cm^2 /hr
- pHISO (isoelectric pH) [2]: 10.8

Structure (SMILES): N[C@@H](CC(=O)O)C(=O)O [Aspartic Acid, L-(+)-Aspartic Acid]
- Jss, steady state rate of penetration of levonorgestrel [1, 3]: 1.1538 mcg/cm^2 /hr
- Jss, steady state rate of penetration of levonorgestrel ([1]; pH 4.4): 1.1538 mcg/cm^2 /hr

Structure (SMILES): N[C@@H](CS)C(=O)O [Cysteine, L-(+)-Cysteine]
- Jss, steady state rate of penetration of levonorgestrel [1]: 1.6160 mcg/cm^2 /hr
- effect on penetration at specific pHs, in words ([1]; Tables III-VI): greatest affect on penetration
- overall rate of penetration of levonorgestrel, ranking in words ([1]; average of all pH values, P=0.05): provided the highest rates
- Jss, steady state rate of penetration of levonorgestrel ([1]; pH 2.3): 2.154 mcg/cm^2 /hr
- rate of penetration of levonorgestrel, ranking in words ([1]; pH 2.3 to 3.2 (pK1')): significantly increased rate
- Jss, steady state rate of penetration of levonorgestrel ([1]; pH 4.9): 1.1635 mcg/cm^2 /hr
- rate of penetration of levonorgestrel, ranking in words ([1]; pK2' (pH 8.6-10.8)): fastest rate of penetration

Structure (SMILES): N[C@@H](CCC(=O)O)C(=O)O [Glutamic Acid, L-Glutamic Acid]
- Jss, steady state rate of penetration of levonorgestrel ([1]; Table II, average of all data at all pH values, amino acid 0.03 M): 0.8277 mcg/cm^2 /hr
- Jss, steady state rate of penetration of levonorgestrel ([1]; Table VI, at pK2', pH 9.9): 0.450 mcg/cm^2 hr
- Jss, steady state rate of penetration of levonorgestrel ([1]; pH 3.8): 0.842 mcg/cm^2 /hr
- Jss, steady state rate of penetration of levonorgestrel ([1]; pH 4.6): 1.1910 mcg/cm^2 /hr
- Jss, steady state rate of penetration of levonorgestrel ([1]; pH 9.9): 0.450 mcg/cm^2 /hr
- rate of penetration of levonorgestrel (in words) ([1]; pH between 4.0 and 5.0): relatively high rates of penetration
- pHISO (isoelectric pH) [2]: 3.8

Structure (SMILES): NCC(=O)O [Glycine]
- effect of hundred-fold concentration difference on rate of penetration ([1]; Glycine buffer, previous experimentation): no significant difference in the rate of penetration
- Jss, steady state rate of penetration of levonorgestrel ([1]; Table VI, at pK2', pH 9.6): 1.003 mcg/cm^2 hr
- Jss, steady state rate of penetration of levonorgestrel ([1]; pH 2.4): 0.557 mcg/cm^2 /hr
- Jss, steady state rate of penetration of levonorgestrel ([1]; pH 4.7): 1.2790 mcg/cm^2 /hr
- Jss, steady state rate of penetration of levonorgestrel ([1]; pH 6.0): 0.532 mcg/cm^2 /hr
- Jss, steady state rate of penetration of levonorgestrel ([1]; pH 9.6): 1.003 mcg/cm^2 /hr

Structure (SMILES): C#C[C@]1(O)CC[C@H]2[C@@H]3CCC4=CC(=O)CC[C@@H]4[C@H]3CC[C@@]21CC [Levonorgestrel, reference compound]
- effect of pH on rate of penetration ([1]; amino acid present in the formulation): not affected significantly by changing pH
- Average rate of penetration of levonorgestrel in the presence of amino acids ([1]; pH 2.5): 1.0980 mcg/cm^2 /hr
- Average rate of penetration of levonorgestrel in the presence of amino acids ([1]; pH 4.5): 1.1279 mcg/cm^2 /hr
- Average rate of penetration of levonorgestrel in the presence of amino acids ([1]; pH 6.1): 1.2798 mcg/cm^2 /hr
- Average rate of penetration of levonorgestrel in the presence of amino acids ([1]; pH 9.6): 1.0598 mcg/cm^2 /hr

Other lines, results leading:

- Jss, steady state rate of penetration of levonorgestrel [1]: 0.8553 mcg/cm^2 /hr
- Jss, steady state rate of penetration of levonorgestrel ([1]; pH 4.8): 0.8553 mcg/cm^2 /hr
Structure (SMILES): C[C@H](N)C(=O)O [Alanine, L-Alanine]

- Jss, steady state rate of penetration of levonorgestrel [1]: 1.5542 mcg/cm^2 /hr
- effect on penetration at specific pHs, in words [1]: greatest affect on penetration
- overall rate of penetration of levonorgestrel, ranking in words [1]: provided the highest rates
- rate of penetration of levonorgestrel (in words) [1]: relatively high rates of penetration
- Jss, steady state rate of penetration of levonorgestrel ([1]; pH 2.4): 0.921 mcg/cm^2 /hr
- Jss, steady state rate of penetration of levonorgestrel ([1]; pH 4.5): 1.3328 mcg/cm^2 /hr
- Jss, steady state rate of penetration of levonorgestrel ([1]; pH 6): 3.167 mcg/cm^2 /hr
Structure (SMILES): CC[C@H](C)[C@H](N)C(=O)O [Isoleucine, L-(+)-Isoleucine]

- Jss, steady state rate of penetration of levonorgestrel [1]: 0.8462 mcg/cm^2 /hr
- Jss, steady state rate of penetration of levonorgestrel ([1]; pH 2.3): 0.765 mcg/cm^2 /hr
- Jss, steady state rate of penetration of levonorgestrel ([1]; pH 4.6): 1.0863 mcg/cm^2 /hr
- Jss, steady state rate of penetration of levonorgestrel ([1]; pH 6.7): 0.688 mcg/cm^2 /hr
Structure (SMILES): O=C(O)[C@@H]1CCCN1 [Proline, L-(-)-Proline]

- Jss, steady state rate of penetration of levonorgestrel [1]: 0.8628 mcg/cm^2 /hr
- Jss, steady state rate of penetration of levonorgestrel ([1]; pH 4.7): 1.1287 mcg/cm^2 /hr
- Jss, steady state rate of penetration of levonorgestrel ([1]; pH 5.7): 0.896 mcg/cm^2 /hr
Structure (SMILES): N[C@@H](CO)C(=O)O [Serine, L-(-)-Serine]

- Jss, steady state rate of penetration of levonorgestrel [1]: 0.6033 mcg/cm^2 /hr
- Jss, steady state rate of penetration of levonorgestrel ([1]; pH 3.2): 0.641 mcg/cm^2 /hr
- Jss, steady state rate of penetration of levonorgestrel ([1]; pH 4.7): 0.6020 mcg/cm^2 /hr
- Jss, steady state rate of penetration of levonorgestrel ([1]; pH 6.5): 0.567 mcg/cm^2 /hr
Structure (SMILES): N[C@@H](Cc1c[nH]c2ccccc12)C(=O)O [Tryptophan, L-(-)-Tryptophan]

- Jss, steady state rate of penetration of levonorgestrel [1]: 1.8006 mcg/cm^2 /hr
- effect on penetration at specific pHs, in words [1]: greatest affect on penetration
- Jss, steady state rate of penetration of levonorgestrel ([1]; pH 2.4): 1.492 mcg/cm^2 /hr
- Jss, steady state rate of penetration of levonorgestrel ([1]; pH 4.7): 1.7903 mcg/cm^2 /hr
- Jss, steady state rate of penetration of levonorgestrel ([1]; pH 5.9): 2.276 mcg/cm^2 /hr
Structure (SMILES): CC(C)[C@H](N)C(=O)O [Valine, L-(+)-Valine]
